Data on 21 molecules can be found in patent US10047105B2, “Gyrase inhibitors” (Merck Sharp & Dohme Corp., priority 2009, dated 2018).

≈ marks a conversion by molar mass, not a printed value.

Experiment [1] deals with S. aureus ATCC 13709. The experiment is described as follows: MIC, antibacterial potency, S. aureus. It is filed as cell-based.
For experiment [2], the system named is S. pneumoniae ATCC 51916. The experiment is described as follows: MIC, S. pneumoniae. The format is cell-based.
Setting [3] is: S. pneumoniae (Spn52), in µg/mL.

As to `CCc1[nH]c2nc(Nc3cnc4c(c3)nnn4C(C)C)nc(N3CC(NC(=O)OC(C)(C)C)C3)c2c1Br.O=C(O)C(F)(F)F` [700,485], the MIC, SA in experiment [1] (S. aureus) turned out to be 4 µg/mL. The MIC Spn52 in experiment [2] (S. pneumoniae) is above 64 µg/mL.
In the same order, the values of `CCc1[nH]c2nc(Sc3cnc4nccnc4c3)nc(N3CC(C)(NC(=O)OC(C)(C)C)C3)c2c1Cl.O=C(O)C(F)(F)F` [700,629] are at most 0.5 µg/mL and 2 µg/mL.
For the molecule `CCc1[nH]c2nc(Sc3cnc4c(c3)ncc(=O)n4CCCN3CCCC3=O)nc(N3CC[C@@H](N)C3)c2c1Cl` [700,797], the “MIC, SA” value in experiment [1] (S. aureus (SA), in µg/mL) is given as above 32. Moreover, in experiment [2] (setting [3]), the “MIC Spn52” value is recorded as above 32.
Consider `CCc1[nH]c2nc(Sc3cnc(Oc4cccnc4)nc3)nc(N3CC(N)C3)c2c1Cl` [700,561], for which the MIC, SA in experiment [1] (S. aureus) was 16 µg/mL (≈ 35.2 µM). In experiment [2] (S. pneumoniae), this molecule displayed an MIC Spn52 of 32 µg/mL (≈ 70.3 µM).
Taken in the same sequence, the figures for `CCc1[nH]c2nc(Sc3cnc4cccnc4c3)nc(N3CC(C4(N)CC4)C3)c2c1Cl` [700,706] were 1 µg/mL (≈ 2.21 µM) and 2 µg/mL (≈ 4.42 µM).
Regarding `CCc1[nH]c2nc(Sc3cnc4nccnc4c3)nc(N3CC(CNC(=O)C4CCC4)C3)c2c1Cl` [700,517], in experiment [1] (S. aureus), the MIC, SA was at most 0.5 µg/mL. In experiment [2] (S. pneumoniae), this molecule returned an MIC Spn52 of 2 µg/mL (≈ 3.93 µM).
In the same order, the values of `CCc1[nH]c2nc(Sc3nc(C(=O)O)cs3)nc(N3CCN(C(C)=O)CC3)c2c1Cl.O=C(O)C(F)(F)F` [700,356] are above 64 µg/mL and above 64 µg/mL.
For the molecule `CCc1[nH]c2nc(Sc3ccc4cc(C#N)cnc4c3)nc(N3CC(CN)C3)c2c1Cl` [700,716], the MIC, SA in experiment [1] (S. aureus) is 1 µg/mL (≈ 2.22 µM). Besides, in experiment [2] (S. pneumoniae), the MIC Spn52 was 2 µg/mL (≈ 4.44 µM).
In the same order, the values of `CCc1[nH]c2nc(Sc3cnc4nccnc4c3)nc(N3CC(NC(C)=O)C3)c2c1Cl` [700,441] are at most 0.5 µg/mL and 2 µg/mL (≈ 4.4 µM).
As for `CCc1[nH]c2nc(Sc3ccc4c(N)nc(CN5CCC(N)CC5)nc4c3)nc(N3CC[C@@H](N)C3)c2c1Cl` [700,846], in experiment [1] (S. aureus (SA), in µg/mL), the “MIC, SA” value is reported as above 64. Further, the “MIC Spn52” value in experiment [2] (setting [3]) is above 64.
Regarding `CCc1[nH]c2nc(Sc3nc(C(=O)O)cs3)nc(NC[C@H](C)O)c2c1Cl` [700,322], the MIC, SA in experiment [1] (S. aureus) is above 64 µg/mL. This molecule also gave an MIC Spn52 in experiment [2] (S. pneumoniae) above 64 µg/mL.
On to `CCc1[nH]c2nc(Sc3ccc4ccc(C(=O)O)nc4c3)nc(N3CC(NS(C)(=O)=O)C3)c2c1Cl` [700,808], for which, in experiment [1] (S. aureus (SA), in µg/mL), the “MIC, SA” value stood at 8. The “MIC Spn52” value in experiment [2] (setting [3]) is on record as 64.
`CCc1[nH]c2nc(Nc3cnc4c(c3)nnn4C(C)C)nc(N3CC[C@@H](N(C)C)C3)c2c1Cl.O=C(O)C(F)(F)F.O=C(O)C(F)(F)F` [700,528] registered an MIC, SA in experiment [1] (S. aureus) of 8 µg/mL. In addition, the MIC Spn52 in experiment [2] (S. pneumoniae) came out at 8 µg/mL.
In turn, `CCc1[nH]c2nc(Sc3cnc4nccnc4c3)nc(NCCN3CCNCC3)c2c1Cl.O=C(O)C(F)(F)F.O=C(O)C(F)(F)F` [700,511] returned an MIC, SA in experiment [1] (S. aureus) above 64 µg/mL. In experiment [2] (S. pneumoniae), this molecule gave an MIC Spn52 above 64 µg/mL.
In experiment [1] (S. aureus), `CCc1[nH]c2nc(Cc3cccnc3)nc(N3CCC(C(C)N4CCOCC4)CC3)c2c1Cl` (stereo not drawn) [700,586] displayed an MIC, SA above 64 µg/mL. Moreover, in experiment [2] (S. pneumoniae), the MIC Spn52 is above 64 µg/mL.
In turn, `CCc1[nH]c2nc(Sc3ccc4nc[nH]c(=O)c4c3)nc(N3CC[C@@H](N)C3)c2c1Cl` [700,710] came in with an MIC, SA in experiment [1] (S. aureus) of 1 µg/mL (≈ 2.26 µM). The molecule further registered an MIC Spn52 in experiment [2] (S. pneumoniae) of 8 µg/mL (≈ 18.1 µM).
As to `CCc1[nH]c2nc(Sc3cnc4cccnc4c3)nc(N3CC4C(C3)C4(CN)NCc3ccccc3)c2c1Cl` (stereo not drawn) [700,887], the “MIC, SA” value in experiment [1] (S. aureus (SA), in µg/mL) is given as 8. The “MIC Spn52” value in experiment [2] (setting [3]) was 4.
Taken in the same sequence, the figures for `CCc1[nH]c2nc(Sc3ccc4nccnc4c3)nc(N3CCC4(CCNCC4)C3)c2c1Cl` [700,901] were 8 and 4.
Molecule `CCOc1nc(Sc2nc(C(=O)O)cs2)nc2[nH]c(CC)c(Br)c12` [700,286] came in with an MIC, SA in experiment [1] (S. aureus) of 4 µg/mL (≈ 9.32 µM). Also, in experiment [2] (S. pneumoniae), the MIC Spn52 came out at 32 µg/mL (≈ 74.5 µM).
In the same order, the values of `CCc1[nH]c2nc(Sc3cnc4nccnc4c3)nc(N3CC(O)C3)c2c1Cl` [700,393] are at most 0.5 µg/mL and 1 µg/mL (≈ 2.42 µM).
Taken in the same sequence, the figures for `CCOc1nc(Sc2nc(C(=O)OC)c(C(C)C)s2)nc2[nH]c(CC)c(Cl)c12` [700,302] were 32 µg/mL (≈ 72.6 µM) and above 64 µg/mL.
